Results reported in PubChem BioAssay (NCI).
Several values for one entry are separate records, joined by “and”; a condition that tells them apart may be missing. Equal values may be shown once.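 Method: 48-hour compound exposure of cells in 96-well plates, five concentrations, linear interpolation of endpoints. Here, GI50 denotes the concentration required for 50% inhibition of growth. TGI denotes the concentration required for complete inhibition of growth.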

What was measured:
Assay in all cases: growth of human tumour cells (NCI), 48 h
MDA-MB-435 = tested on: MDA-MB-435
SNB-75 CNS = tested on: SNB-75 CNS
MOLT-4 leukemia = tested on: MOLT-4 leukemia
SW-620 colon = tested on: SW-620 colon
RXF 393 renal = tested on: RXF 393 renal
U251 CNS = tested on: U251 CNS
A498 renal = tested on: A498 renal
SK-MEL-2 melanoma = tested on: SK-MEL-2 melanoma
UO-31 renal = tested on: UO-31 renal
RPMI-8226 leukemia = tested on: RPMI-8226 leukemia

Row | SMILES | TGI (MDA-MB-435) [µM] | TGI (SNB-75 CNS) [µM] | TGI (MOLT-4 leukemia) | TGI (SW-620 colon) [µM] | TGI (RXF 393 renal) | TGI (U251 CNS) [µM] | TGI (A498 renal) | TGI (SK-MEL-2 melanoma) | TGI (UO-31 renal) [µM] | GI50 (MDA-MB-435) | GI50 (SNB-75 CNS) | GI50 (MOLT-4 leukemia) | GI50 (RPMI-8226 leukemia) | TGI (RPMI-8226 leukemia) [µM] | GI50 (SW-620 colon) | GI50 (RXF 393 renal) | GI50 (U251 CNS) [nM] | GI50 (A498 renal) | GI50 (SK-MEL-2 melanoma) | GI50 (UO-31 renal)
1 | CC1=C(\C=C/C(C)=C/C=C/C(C)=C/C=C/C=C(C)\C=C\C=C(C)/C=C/C2=C(C)CCCC2(C)C)C(C)(C)CCC1 | > 100 | > 100 | > 100 µM | > 100 | > 100 µM | > 100 | > 100 µM | > 100 µM | > 100 | – | – | – | – | – | – | – | – | – | – | –
2 | COc1cc(/C=N/NC(=O)c2cnn3c2NC(c2ccccc2)C3)ccc1OCc1ccccc1 (centres undefined) | 0.95 | 2.24 | 12.2 µM | 2.76 | 3.96 µM | 3.07 | 2.5 µM | 7.09 µM | 8.87 | 158 nM | 0.595 µM | 1.14 µM | 0.955 µM | 23.6 | 569 nM | 1290 nM | 1140 | 226 nM | 1320 nM | 1280 nM
3 | O=C(NOCCO)c1ccc2cncn2c1Nc1ccc(I)cc1F | > 100 | > 100 | > 100 µM | > 100 | > 10 µM and 21.4 µM | > 90.1 | 0.0542 µM and 0.043 µM | 0.00636 µM and < 0.01 µM | > 100 | 7.56 nM and < 10 nM | > 8.85 µM and 14.3 µM | > 10 µM and 35.1 µM | > 10 µM and 24.6 µM | > 100 | 3.86 nM and < 10 nM | 188 nM and 303 nM | 722 | 6.06 nM and < 10 nM | 1.27 nM and < 10 nM | 59.6 nM and 45.5 nM
4 | COc1cc(C2c3cc4c(cc3[C@@H](Nc3ccc(F)cc3)C3COC(=O)[C@H]23)OCO4)cc(OC)c1O (some centres undefined) | > 100 | – | 0.821 µM and 2.26 µM | 44.8 | 11.4 µM | 8.9 | 7.84 µM | 19.2 µM | 8.72 | – | 0.438 µM | 0.0657 µM | 0.531 µM | 17.1 | 859 nM | – | 451 | 878 nM | – | 753 nM
5 | COc1cc(OC)c(/C=C/S(=O)(=O)Cc2ccc(OC)c(N)n2)c(OC)c1 | < 0.01 | > 100 | > 100 µM | > 100 | > 100 µM | > 100 | – | > 100 µM | > 100 | < 10 nM | – | < 0.0214 µM | < 0.0172 µM | > 85.9 | < 10 nM | < 10 nM | < 10 | < 10 nM | – | < 12.6 nM
6 | COc1ccc2c(Cl)cc(NC(=S)Nc3ccccc3)nc2c1 | 34.6 | 52.1 | 72.2 µM | 69.1 | 55.6 µM | 36.4 | 48.1 µM | 55 µM | – | – | – | – | – | 59.9 | – | – | – | – | – | –
7 | OC[C@H]1C[C@](O)(c2ccccc2Cl)[C@@H](c2ccccc2Cl)O1 | 33.3 | 79.9 | 51.4 µM | > 100 | 37.9 µM | > 100 | 59.2 µM | – | 57.4 | 16300 nM | 20.9 µM | 17.1 µM | 21.7 µM | 58.2 | 30100 nM | 18700 nM | 28500 | 22900 nM | – | 23000 nM
